Like-named read-outs stand apart in the source and are kept apart here.
Target: T1, CARM1 (PRMT4) (Homo sapiens, UniProt Q86X55)
T1 construct: Flag-CARM1-His was eluted with 200 ug/ml FLAG peptide in buffer A; made in house; host or cells: HEK 293F cells (BacMam baculovirus)
T1 sequence (Q86X55 2-585 isoform Q86X55-1): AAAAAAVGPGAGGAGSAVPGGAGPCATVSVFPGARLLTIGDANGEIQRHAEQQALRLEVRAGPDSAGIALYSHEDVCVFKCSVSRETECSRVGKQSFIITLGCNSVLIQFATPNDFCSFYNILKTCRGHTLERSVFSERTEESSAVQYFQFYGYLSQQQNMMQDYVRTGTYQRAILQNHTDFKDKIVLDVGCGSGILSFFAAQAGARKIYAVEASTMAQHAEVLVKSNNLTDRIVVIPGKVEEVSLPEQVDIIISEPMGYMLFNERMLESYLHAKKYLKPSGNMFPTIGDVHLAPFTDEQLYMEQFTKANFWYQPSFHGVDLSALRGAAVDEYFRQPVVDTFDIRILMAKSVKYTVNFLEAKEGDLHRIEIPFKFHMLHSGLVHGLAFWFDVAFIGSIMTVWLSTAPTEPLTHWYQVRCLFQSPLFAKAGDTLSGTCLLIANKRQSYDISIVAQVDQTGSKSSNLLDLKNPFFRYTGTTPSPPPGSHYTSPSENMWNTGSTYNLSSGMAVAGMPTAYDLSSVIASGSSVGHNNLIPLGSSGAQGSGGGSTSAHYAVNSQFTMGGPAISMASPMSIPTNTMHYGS
Experiment: CARM1 Biochemical Assay
Excerpt: Peptide representative of human histone H3 residues 16-30 was synthesized with an N-terminal linker-affinity tag motif and a C-terminal amide cap by 21st Century Biochemicals. The peptide was purified by high-performance liquid chromatography (HPLC) to greater than 95% purity and confirmed by liquid chromatography mass spectrometry (LC-MS). The sequence was Biot-Ahx-[…]-amide and contained a monomethylated arginine at position 26 (SEQ ID NO.: 14).
Human CARM1 (PRMT4) (NM_199141.1) transcript clone was amplified from an HEK 293 cDNA library, incorporating a flanking 5′ sequence encoding a FLAG tag ([…]) (SEQ ID NO.:6) fused directly to Ala 2 of CARM1 and 3′ sequence encoding a hexa His sequence ([…]) (SEQ ID NO.: 15) fused directly to Ser 608. The gene sequence encoding isoform1 containing a deletion of amino acids 539-561 was amplified subsequently and subcloned into pFastBacMam (Viva Biotech).
Column was washed with 500 mM NaCl in buffer A and Flag-CARM1-His was eluted with 200 ug/ml FLAG peptide in buffer A. Pooled fractions were dialyzed in 20 mM Tris, 150 mM NaCl, 5% glycerol and 1 mM DTT, pH 7.8. The purity of recovered protein was 94.
General Procedure for CARM1 Enzyme Assays on Peptide Substrates.
The assays were all performed in a buffer consisting of 20 mM Bicine (pH=7.6), 1 mM TCEP, 0.005% BSG, and 0.002% Tween 20, prepared on the day of use. Compounds in 100% DMSO (1 ul) were spotted into a polypropylene 384-well V-bottom plates (Greiner) using a Platemate Plus outfitted with a 384-channel head (Thermo Scientific). DMSO (1 ul) was added to Columns 11, 12, 23, 24, rows A-H for the maximum signal control and 1 ul of SAH, a known product and inhibitor of CARM1, was added to columns 11, 12, 23, 24, rows I-P for the minimum signal control. A cocktail (40 ul) containing the CARM1 enzyme was added by Multidrop Combi (Thermo-Fisher). The compounds were allowed to incubate with CARM1 for 30 min at room temperature, then a cocktail (10 ul) containing ^3H-SAM and peptide was added to initiate the reaction (final volume=51 ul). The final concentrations of the components were as follows: CARM1 was 0.25 nM, ^3H-SAM was 30 nM, peptide was 250 nM, SAH in the minimum signal control wells was 1 mM, and the DMSO concentration was 2%. The assays were stopped by the addition of non-radiolabeled SAM (10 ul) to a final concentration of 300 uM, which dilutes the ^3H-SAM to a level where its incorporation into the peptide substrate is no longer detectable. […] The plates were then read in a PerkinElmer TopCount plate reader to measure the quantity of ^3H-labeled peptide bound to the Flashplate surface, measured as disintegrations per minute (dpm) or alternatively, referred to as counts per minute (cpm). […]

[1] = Table 2, biochemical evaluation, read-out: PRMT4 IC50 (class)
[2] = Table 2a, numerical, single experiment or average of multiple experiments, read-out: PRMT4 IC50

SMILES	IC50 [1] [µM]	IC50 [2] [µM]
CN(CCN)Cc1ccnn1-c1ccc(C#N)cc1 [Compound 2, 4-(5-(((2-aminoethyl)(methyl)amino)methyl)-1H-pyrazol-1-yl)benzonitrile]	> 10	> 10
CN(CCN)Cc1ncoc1-c1ccc(C#N)cc1 [Compound 1, 4-(4-(((2-aminoethyl)(methyl)amino)methyl)oxazol-5-yl)benzonitrile]	> 10	> 10

— patent US20160031839A1, “ARGININE […] INHIBITORS AND USES THEREOF” (EPIZYME, INC., priority 2013, published 2016)
